Data taken from US6403575B1, “3-Pyridyl enantiomers and their use as analgesics” (Abbott Laboratories, priority 1996, dated 2002).
“Also recorded” adds a separate entry of the source. Structures can show the parent of a compound that is named as a salt.

Experiments:
[1] = biological target: T1, neuronal nicotinic acetylcholine receptors (Rattus norvegicus, UniProt P09483+P12390); assay: [3H]-cytisine binding to neuronal nicotinic acetylcholine receptors, whole rat brain membranes; details: [3H]-cytisine 1.25 nM, whole rat brain membranes; read-out: [3H] CYT Ki
T1 construct: crude synaptic membrane preparations from whole rat brain; from tissue; host or cells: whole rat brain, crude synaptic membranes
T1 sequence (P09483 31-630): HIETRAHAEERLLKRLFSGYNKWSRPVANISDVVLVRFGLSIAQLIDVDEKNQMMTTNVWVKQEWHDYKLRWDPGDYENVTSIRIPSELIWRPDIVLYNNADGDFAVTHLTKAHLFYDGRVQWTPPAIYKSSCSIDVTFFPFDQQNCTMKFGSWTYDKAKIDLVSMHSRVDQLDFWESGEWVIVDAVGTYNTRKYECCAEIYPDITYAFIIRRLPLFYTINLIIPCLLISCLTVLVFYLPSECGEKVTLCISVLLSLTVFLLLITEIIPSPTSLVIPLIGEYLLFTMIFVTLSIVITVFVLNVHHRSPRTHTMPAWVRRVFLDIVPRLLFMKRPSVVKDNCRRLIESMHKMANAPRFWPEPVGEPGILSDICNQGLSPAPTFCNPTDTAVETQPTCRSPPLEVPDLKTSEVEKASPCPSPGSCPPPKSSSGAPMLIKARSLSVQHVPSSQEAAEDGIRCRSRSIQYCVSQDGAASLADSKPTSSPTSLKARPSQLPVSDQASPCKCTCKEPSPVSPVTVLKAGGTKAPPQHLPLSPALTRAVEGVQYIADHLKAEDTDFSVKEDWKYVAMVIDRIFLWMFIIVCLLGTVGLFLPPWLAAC
T1 sequence (P12390 25-500): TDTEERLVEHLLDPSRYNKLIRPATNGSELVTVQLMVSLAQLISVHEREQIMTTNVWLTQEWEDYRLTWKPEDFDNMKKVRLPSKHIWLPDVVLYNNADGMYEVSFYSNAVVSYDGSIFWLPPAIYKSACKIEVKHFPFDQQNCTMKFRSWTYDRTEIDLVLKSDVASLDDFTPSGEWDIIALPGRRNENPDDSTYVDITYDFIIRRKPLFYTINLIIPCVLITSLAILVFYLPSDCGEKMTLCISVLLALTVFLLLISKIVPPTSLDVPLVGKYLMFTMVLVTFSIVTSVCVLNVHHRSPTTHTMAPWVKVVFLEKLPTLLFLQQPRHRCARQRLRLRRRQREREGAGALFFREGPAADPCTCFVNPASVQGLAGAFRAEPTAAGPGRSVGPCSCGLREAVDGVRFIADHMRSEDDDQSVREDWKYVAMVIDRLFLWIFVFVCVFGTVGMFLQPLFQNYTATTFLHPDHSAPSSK
Outline: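 Crude synaptic membranes from whole rat brain (125-150 μg protein) incubated with test compound and 1.25 nM [3H]-cytisine for 60 min at 4 °C in Tris-Cl buffer pH 7.4 with Na/K/Mg/Ca salts. Filtration through PEI-soaked filters; nonspecific binding with 10 μM (−)-nicotine; values as percentage of total binding.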

[2] = biological target: neuromuscular junction nicotinic acetylcholine receptor (Tetronarce californica, UniProt P02710+P02714+P02718); assay: biochemical; assay type: binding, Torpedo Californica
neuromuscular junction nicotinic acetylcholine receptor, sequence (P02714 18-506): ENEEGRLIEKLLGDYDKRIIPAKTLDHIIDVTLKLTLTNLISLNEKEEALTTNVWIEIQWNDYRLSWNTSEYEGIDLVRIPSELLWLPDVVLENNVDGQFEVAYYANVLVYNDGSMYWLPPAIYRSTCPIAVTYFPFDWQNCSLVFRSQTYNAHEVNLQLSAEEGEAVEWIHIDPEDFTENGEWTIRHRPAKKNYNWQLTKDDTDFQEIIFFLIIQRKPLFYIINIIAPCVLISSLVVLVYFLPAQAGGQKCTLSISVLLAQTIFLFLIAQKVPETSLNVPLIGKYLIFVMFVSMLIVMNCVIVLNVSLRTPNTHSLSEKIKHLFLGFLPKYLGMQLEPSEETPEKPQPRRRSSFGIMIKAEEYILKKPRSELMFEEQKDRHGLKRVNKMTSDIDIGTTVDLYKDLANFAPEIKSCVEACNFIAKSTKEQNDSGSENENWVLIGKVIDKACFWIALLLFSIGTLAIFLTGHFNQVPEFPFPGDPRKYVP
neuromuscular junction nicotinic acetylcholine receptor, sequence (P02710 25-461): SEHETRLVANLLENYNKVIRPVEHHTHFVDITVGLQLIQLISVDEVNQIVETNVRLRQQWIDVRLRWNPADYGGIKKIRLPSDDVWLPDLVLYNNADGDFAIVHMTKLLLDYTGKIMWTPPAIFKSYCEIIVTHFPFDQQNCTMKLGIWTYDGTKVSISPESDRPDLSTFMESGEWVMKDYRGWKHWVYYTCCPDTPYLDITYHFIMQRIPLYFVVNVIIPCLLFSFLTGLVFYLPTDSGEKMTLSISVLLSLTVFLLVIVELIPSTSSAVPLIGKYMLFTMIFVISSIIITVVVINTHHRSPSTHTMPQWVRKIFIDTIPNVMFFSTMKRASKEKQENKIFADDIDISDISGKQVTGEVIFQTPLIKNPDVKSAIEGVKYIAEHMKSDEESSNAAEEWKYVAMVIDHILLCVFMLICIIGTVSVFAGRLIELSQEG
neuromuscular junction nicotinic acetylcholine receptor, sequence (P02712 25-493, further chain): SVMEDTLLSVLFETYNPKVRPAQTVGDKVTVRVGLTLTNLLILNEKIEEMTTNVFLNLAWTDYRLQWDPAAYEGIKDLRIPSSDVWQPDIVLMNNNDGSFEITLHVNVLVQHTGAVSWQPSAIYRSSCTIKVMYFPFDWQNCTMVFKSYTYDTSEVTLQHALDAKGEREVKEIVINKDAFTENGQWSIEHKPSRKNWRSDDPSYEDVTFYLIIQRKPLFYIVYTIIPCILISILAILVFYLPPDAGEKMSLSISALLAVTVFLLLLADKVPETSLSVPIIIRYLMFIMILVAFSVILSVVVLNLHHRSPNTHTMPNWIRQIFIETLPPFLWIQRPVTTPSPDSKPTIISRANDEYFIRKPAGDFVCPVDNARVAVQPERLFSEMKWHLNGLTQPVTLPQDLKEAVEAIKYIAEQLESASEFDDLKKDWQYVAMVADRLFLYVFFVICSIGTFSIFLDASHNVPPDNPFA
neuromuscular junction nicotinic acetylcholine receptor, sequence (P02718 22-522): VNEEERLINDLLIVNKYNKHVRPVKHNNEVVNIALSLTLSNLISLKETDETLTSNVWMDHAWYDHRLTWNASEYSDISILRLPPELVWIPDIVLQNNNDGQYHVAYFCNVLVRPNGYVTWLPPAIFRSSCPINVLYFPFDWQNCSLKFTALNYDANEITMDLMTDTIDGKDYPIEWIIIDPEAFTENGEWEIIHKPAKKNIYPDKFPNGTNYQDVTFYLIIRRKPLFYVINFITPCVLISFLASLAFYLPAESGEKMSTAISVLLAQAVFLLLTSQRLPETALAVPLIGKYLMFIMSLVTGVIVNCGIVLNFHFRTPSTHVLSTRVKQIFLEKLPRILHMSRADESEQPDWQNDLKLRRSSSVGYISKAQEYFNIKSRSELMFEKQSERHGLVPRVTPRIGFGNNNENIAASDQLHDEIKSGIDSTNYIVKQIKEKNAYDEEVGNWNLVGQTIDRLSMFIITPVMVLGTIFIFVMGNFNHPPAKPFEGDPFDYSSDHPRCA

[3] = biological target: T2, peripheral ganglionic receptors (Homo sapiens, UniProt P30926+P32297); assay: 86Rb+ flux activation in IMR-32 human neuroblastoma cells; assay type: cell-based; details: 1 μM compound, % of maximum response to (S)-nicotine
T2 construct: Cells of the IMR-32 human neuroblastoma clonal cell line (ATCC, Rockville, Md.); host or cells: IMR-32 human neuroblastoma cells
T2 sequence (P32297 32-505): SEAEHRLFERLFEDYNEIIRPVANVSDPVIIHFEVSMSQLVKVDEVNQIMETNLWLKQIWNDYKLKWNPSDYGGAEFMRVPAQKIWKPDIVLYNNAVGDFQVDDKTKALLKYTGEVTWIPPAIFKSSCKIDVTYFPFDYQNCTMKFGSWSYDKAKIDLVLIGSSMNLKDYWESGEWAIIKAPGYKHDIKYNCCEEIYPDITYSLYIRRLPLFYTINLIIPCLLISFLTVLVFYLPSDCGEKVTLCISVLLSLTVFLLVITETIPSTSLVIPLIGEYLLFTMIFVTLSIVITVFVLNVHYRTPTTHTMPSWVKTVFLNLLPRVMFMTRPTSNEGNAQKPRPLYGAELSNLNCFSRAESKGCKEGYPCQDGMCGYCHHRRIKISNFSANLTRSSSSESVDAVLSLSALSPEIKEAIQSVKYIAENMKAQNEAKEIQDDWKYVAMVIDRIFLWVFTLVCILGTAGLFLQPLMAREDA
T2 sequence (P30926 22-498): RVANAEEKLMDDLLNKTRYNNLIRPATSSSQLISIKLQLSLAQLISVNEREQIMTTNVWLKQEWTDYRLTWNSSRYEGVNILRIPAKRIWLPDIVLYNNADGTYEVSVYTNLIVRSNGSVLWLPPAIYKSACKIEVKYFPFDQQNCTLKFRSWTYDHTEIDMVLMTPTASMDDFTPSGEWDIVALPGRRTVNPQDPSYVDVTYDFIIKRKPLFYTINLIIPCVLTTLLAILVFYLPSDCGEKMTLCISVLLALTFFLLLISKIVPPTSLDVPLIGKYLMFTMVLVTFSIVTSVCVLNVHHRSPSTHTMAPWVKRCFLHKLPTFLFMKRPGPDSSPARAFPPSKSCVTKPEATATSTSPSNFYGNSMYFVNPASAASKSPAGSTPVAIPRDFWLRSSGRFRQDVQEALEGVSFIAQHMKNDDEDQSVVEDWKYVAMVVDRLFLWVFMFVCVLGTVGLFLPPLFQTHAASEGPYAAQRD
Protocol: Protocol for the Determination of Ability of Nicotinic Acetylcholine Receptor Ligands to Activate Peripheral Ganglionic Receptors
Cells of the IMR-32 human neuroblastoma clonal cell line (ATCC, Rockville, Md.) were maintained in a log phase of growth according to established procedures. Experimental cells were seeded at a density of 500,000 cells/mL into a 24-well tissue culture dish. Plated cells were allowed to proliferate for at least 48 hours before loading with 2 μCi/mL of ^86Rb^+ (35 Ci/mmol) overnight at 37° C. The ^86Rb^+ efflux assays were performed according to previously published protocols (Lukas, R. J., J. Pharmacol. Exp. Ther., 265: 294-302, 1993) except serum-free Dulbecco's Modified Eagle's Medium was used during the ^86Rb^+ loading, rinsing, and agonist-induced efflux steps. Data reflect the activation of ^86Rb^+ flux at a concentration of 1 μM, and reflect the response as a percentage of the maximum response elicited by (S)-nicotine.

rat spinal cord cultures = assay: Neuroprotection against substance P or glutamate toxicity in primary spinal cord cultures (LDH release); assay type: cell-based; details: rat spinal cord cultures
mice [4] = assay: Mouse Hot Plate Paradigm; assay type: in vivo; details: ip, 0.5 h, i.p., 30 minutes prior to testing, 55° C., read-out: MED Hot plate model (μmol/kg, i.p.)
rats [5] = assay: Chung Model of Neuropathic Pain; assay type: in vivo; details: rat, 50% threshold to VonFrey hairs
mice [6] = details: mouse, in vivo, ip
Protocol: Compounds were co-mixed in a syringe, and co-administered via the intraperitoneal route 30 min prior to testing in the mouse hot-plate paradigm as indicated above. Separate groups of animals (n=7-8/group) were used for each dose group.

rats [7] = assay: Chung Model of Neuropathic Pain following repeated dosing; assay type: in vivo; details: rat
Protocol: Animals were surgically prepared as described above for the Chung model. For assessment of each test compound, two treatment groups (6 animals each) were established. One group was injected (i.p.) with test compound twice daily for 5 days, and the other group was injected on the same schedule with saline. Responses to von Frey hairs were assessed as described above both before, and 15 minutes after, injection on the first 2 days and also on the 5th day. The saline-treatment group was given saline for the first 4 days and on the morning of the 5th day, but received a challenge of the test compound in the afternoon of the fifth day.

rats [8] = assay: Formalin Model of Persistent Pain; assay type: in vivo; details: rat, oral, 0.1-0.3 umol/kg, 15 minutes prior to formalin, second phase
rats [9] = assay: Carrageenan paw edema model; assay type: in vivo; details: rat, i.p.
mice [10] = assay type: in vivo; details: mouse, i.p.
Protocol: Motor coordination was assessed using an accelerating rotarod apparatus (Omnitech Electronics, Inc., Columbus, Ohio). Locomotor activity was monitored under dim light in a 41×41 cm. open field using a photobeam activity system (San Diego Instruments, San Diego, Calif.). The mouse was placed on a 3.5 cm diameter rod which increased in speed from 0 to 40 rpm over 120 seconds. The time required for the mouse to fall from the rod was recorded with a maximum score of 120 seconds. Twenty-five min after receiving an i.p. injection, the mice were placed in the open field for 5 min. After removal from the open field (i.e., 30 min after injection), they were immediately tested on the rotarod. Body temperature was assessed using a probe inserted 3 cm into the rectum approximately 35 min after injection. (YSI Tele-Thermometer, Yellow Springs Instrument Co., Inc., Yellow Springs, Ohio). Diazepam (10.5 μmol/kg, i.p.) was used as a positive control.

SMILES: Clc1ccc(OC[C@H]2CCN2)cn1 [Example 4, 5-((2R)-Azetidinylmethyloxy)-2-chloropyridine hydrochloride]
- Ki [1]: 0.05 nM
- Ki [2]: 16600 nM
- reduced affinity for the neuromuscular junction nicotinic acetylcholine receptor [2]: 12.8 fold
- IMR-32 % maximal nicotine response at 1 μM Cmpd conc'n [3]: 97%
- protection against SP- and Glu-induced neurotoxicity (rat spinal cord cultures; SP 30 μM or Glu 300 μM, hydrochloride): protects against SP-induced neurotoxicity; also recorded: reduces both SP and Glu-induced neurotoxicity
- EC50 (rat spinal cord cultures; SP and Glu-induced neurotoxicity): 10000 nM
- minimal effective dose (mice [4]): 0.62 µmol/kg
- MED Chung model (μmol/kg, i.p.) (rats [5]): 0.3 µmol/kg
- antinociceptive activity combined with effective doses of morphine (mice [6]): enhanced antinociceptive activity
- antinociceptive activity combined with subthreshold doses of morphine (mice [6]): can produce effective antinociceptive activity
- antinociceptive effects when coadministered with morphine (mice [6]): produced effective antinociceptive effects
- anti-allodynic effects during each test session (rats [7]; 0.3 μmol/kg, i.p., b.i.d., 5 days): Significant anti-allodynic effects
- anti-allodynic effect following repeated dosing (rats [7]; in vivo, ip): does not decrease following repeated dosing
- antinociceptive effects in the Formalin Model (rats [8]): produced significant antinociceptive effects
- ED30 reduction of carrageenan-induced paw edema (rats [9]): 0.21 µmol/kg
- efficacy to reduce paw edema compared with dexamethasone (rats [9]; hydrochloride): as effective as dexamethansone; also recorded: as efficacious as dexamethasone

SMILES: Fc1ccc(OCC2CCN2)cn1 [Example 8, 5-(2R)-Azetidinylmethyloxy)-2-fluoropyridine dibenzoate]
- Ki [1]: 0.06 nM
- IMR-32 % maximal nicotine response at 1 μM Cmpd conc'n [3]: 46%
- minimal effective dose (mice [4]): 1.9 µmol/kg
- MED Chung model (μmol/kg, i.p.) (rats [5]): 0.62 µmol/kg
- dose at which a rotarod effect was reached (mice [10]): 19

SMILES: Fc1ccc(OC[C@@H]2CCN2)cn1 [Example 9, 5-(2S)-Azetidinylmethyloxy)-2-fluoropyridine dibenzoate]
- Ki [1]: 0.16 nM
- IMR-32 % maximal nicotine response at 1 μM Cmpd conc'n [3]: 103%
- minimal effective dose (mice [4]): 0.62 µmol/kg
- dose showing rotarod impairments (mice [10]; in 2 of 3 experiments): 0.62 µmol/kg
